Data from paper PMC6413231, “o-Vanillin Derived Schiff Bases and Their Organotin(IV) Compounds: Synthesis, Structural Characterisation, In-Silico Studies and Cytotoxicity” (International Journal of Molecular Sciences, 2019).
Like-named read-outs stand apart in the source and are kept apart here. Blank lines part the entries; values can stand above or below the molecule they belong to.

What was measured:
[1] = tested on: A431 (skin) cancer cells; experiment: MTT growth inhibition assay, A431; format: cell-based; conditions: ± standard error, read-out: Growth Inhibition Concentration, GI50
Description: (§1) The Schiff bases and their organotin(IV) compounds were screened for in vitro cytotoxicity against a panel of 12 cancer cell lines: EJ-28 (muscle invasive bladder), RT-112 (minimum-invasive bladder), HT29 (colon), U87 and SJ-G2 (glioblastoma), MCF-7 (breast), A2780 (ovarian), H460 (lung), A431 (skin), DU145 (prostate), BE2-C (neuroblastoma), MIA (pancreatic) and one normal breast cell line (MCF-10A) using the MTT metabolic assay (Figure 6). After 72 h of incubation, a dose-dependent […] effect towards the cancer cell lines was measured at very low micromolar (µM) concentrations of the compounds. The growth inhibition concentration of the Schiff bases and their organotin(IV) compounds required to inhibit 50% cell proliferation relative to the cells that were treated with DMSO (control) are given in Table 2. The stability of these compounds was assessed in DMSO as well as in a mixture of DMSO-H2O. The absorbance obtained from UV-vis spectroscopy analysis was monitored for 72 h, and an unchanged pattern in the spectra was indicative that the compounds were stable in both the solvent systems tested.
(§2) For HT29 (colon), U87 and SJ-G2 (glioblastoma), MCF-7 (breast), A2780 (ovarian), H460 (lung), A431 (skin), Du145 (prostate), BE2-C (neuroblastoma), MIA (pancreas) cell lines and one normal breast cell line, MCF-10A (normal breast), the MTT assays were performed using the following method:
(§3) Stock solutions were prepared as follows and stored at −20 °C: Trial compounds were stored as 10 mM solutions in DMSO. All cell lines were cultured in a humidified atmosphere 5% CO2 at 37 °C. The cancer cell lines were maintained in Dulbecco’s modified Eagle’s medium (DMEM) (Trace Biosciences) supplemented with 10% foetal bovine serum, 10 mM sodium bicarbonate, penicillin (100 IU/mL), streptomycin (100 μg/mL) and glutamine (4 mM). The normal cell line, MCF-10A was cultured in DMEM:F12 (1:1) cell culture media, 5% heat inactivated horse serum, supplemented with penicillin (50 IU/mL), streptomycin (50 μg/mL), 20mM Hepes, L-glutamine (2 mM), epidermal growth factor (20 ng/mL), hydrocortisone (500 ng/mL), cholera toxin (100 ng/mL) and insulin (10 μg/mL).
(§4) Cells in logarithmic growth were transferred to 96-well plates. Cytotoxicity was determined by plating cells in duplicate in 100 μL medium at a density of 2500–4000 cells/well. On day 0 (24 h after plating), when the cells were in logarithmic growth, 100 μL medium, with or without the test agent, was added to each well. After 72 h drug exposure, growth inhibitory effects were evaluated using the MTT (3-[4,5-dimethylthiazol-2-yl]-2,5-diphenyltetrazolium bromide) assay and absorbance read at 540 nm. Percentage growth inhibition was determined at a fixed drug concentration of 25 μM. A value of 100% was indicative of complete cell growth inhibition. Those analogues showing appreciable percentage growth inhibition underwent further dose-response analysis allowing for the calculation of a GI50 value. This value is the drug concentration at which cell growth is 50% inhibited based on the difference between the optical density values on day 0 and those at the end of drug exposure.

[2] = tested on: A2780 (ovarian) cancer cells; experiment: MTT growth inhibition assay, A2780; format: cell-based; conditions: 72 h, ± standard error, read-out: Growth Inhibition Concentration, GI50
Description: as §1, §2, §3, §4

[3] = tested on: RT-112 (minimum-invasive bladder) cancer cells; experiment: MTT cytotoxicity assay, RT-112; format: cell-based, human; conditions: RT-112 cells, 72 h, ± standard error, read-out: Growth Inhibition Concentration, GI50
Description: as §1
(§5) The inhibitory effect of the synthesised compounds on the growth of bladder (EJ-28 and RT-112) cancer cells was evaluated by MTT assay. […] RT-112 and EJ-28, human bladder cancer cell lines used in this study (ATCC, Manassas, VA, USA) were cultured in RPMI-1640 (High glucose) medium supplemented with 10% fetal bovine serum containing 1% penicillin. The cells were cultured at 37 °C in a humidified atmosphere of 5% CO2 in air. Cells were seeded in 96-well plates at 6000 cells per well for 24 h, then they were treated with different concentrations of compounds for 72 h. The medium was subsequently removed and the wells were washed with 200 µL of phosphate buffer saline. Aliquots of 20 µL of 3-(4,5-dimethylthiazol-2-yl)-2,5-diphenyltetrazolium bromide (MTT) was added to each well and incubated for 4 h at 37 °C. Aliquots of 200 µL of media was then removed from each well and 200 µL of DMSO was added. Optical density (OD) was measured using an ELISA plate reader at 570 nm. Control wells (100% viability), containing media and DMSO, were included in all the experiments. All data points represented an average of triplicate assays. Cytotoxicity was expressed as CD50, i.e., the concentration that reduced the absorbance of treated cells by 50% with reference to the control (untreated cells).

[4] = tested on: B-DNA (PDB ID: 1BNA) dodecamer d(CGCGAATTCGCG)2; set-up: method as in PMID 27649452; conditions: comparison value for cisplatin; cited from earlier work
[5] = tested on: Du145 (prostate) cancer cells; experiment: MTT growth inhibition assay, Du145; format: cell-based; conditions: ± standard error, read-out: Growth Inhibition Concentration, GI50
Description: as §1, §2, §3, §4

[6] = tested on: MIA (pancreatic) cancer cells; experiment: MTT growth inhibition assay, MIA; format: cell-based; conditions: 72 h, ± standard error, read-out: Growth Inhibition Concentration, GI50
Description: as §1, §2, §3, §4

[7] = tested on: SJ-G2 (glioblastoma) cancer cells; experiment: MTT growth inhibition assay, SJ-G2; format: cell-based; conditions: MTT, 72 h, ± standard error, read-out: Growth Inhibition Concentration, GI50
Description: as §1, §2, §3, §4

[8] = tested on: H460 (lung) cancer cells; experiment: MTT growth inhibition assay, H460; format: cell-based; conditions: ± standard error, read-out: Growth Inhibition Concentration, GI50
Description: as §1, §2, §3, §4

[9] = tested on: U87 (glioblastoma) cancer cells; experiment: MTT growth inhibition assay, U87; format: cell-based; conditions: 72 h, ± standard error, read-out: Growth Inhibition Concentration, GI50
Description: as §1, §2, §3, §4

[10] = tested on: EJ-28 (muscle invasive bladder) cancer cells; experiment: MTT cytotoxicity assay, EJ-28; format: cell-based, human; conditions: EJ-28 cells, 72 h, ± standard error, read-out: Growth Inhibition Concentration, GI50
Description: as §1, §5

[11] = tested on: MCF-7 (breast) cancer cells; experiment: MTT growth inhibition assay, MCF-7; format: cell-based; conditions: 72 h, ± standard error, read-out: Growth Inhibition Concentration, GI50
Description: as §1, §2, §3, §4

[12] = tested on: BE2-C (neuroblastoma) cancer cells; experiment: MTT growth inhibition assay, BE2-C; format: cell-based; conditions: 72 h, ± standard error, read-out: Growth Inhibition Concentration, GI50
Description: as §1, §2, §3, §4

[13] = tested on: HT29 (colon) cancer cells; experiment: MTT growth inhibition assay, HT29; format: cell-based; conditions: ± standard error, read-out: Growth Inhibition Concentration, GI50
Description: as §1, §2, §3, §4

[14] = tested on: MCF-10A (normal breast) cell line; experiment: MTT growth inhibition assay, MCF10A; format: cell-based; conditions: Homo sapiens, MCF-10A, MCF10A normal breast cells, 72 h, ± standard error, read-out: Growth Inhibition Concentration, GI50
Description: as §1, §2, §3, §4

SMILES: N.N.[Cl][Pt][Cl] [Cisplatin, reference compound]
GI50 ([1]; 72 h): 2.4 ± 0.3 µM
GI50 [2]: 1 ± 0.1 µM
GI50 [3]: 3.56 ± 0.88 µM
lowest binding energy (docking with DNA) [4]: -8.65 kcal/mol
GI50 ([5]; 72 h): 1.2 ± 0.1 µM
GI50 [6]: 8 ± 1 µM
GI50 [7]: 0.4 ± 0.1 µM
GI50 ([8]; 72 h): 0.9 ± 0.2 µM
GI50 [9]: 4 ± 1 µM
GI50 [10]: 3.97 ± 0.48 µM
GI50 ([11]; MCF-7 cells): 6.5 ± 0.8 µM
GI50 [12]: 1.9 ± 0.2 µM
GI50 ([13]; 72 h): 11 ± 2 µM

GI50 ([1]; Homo sapiens, A-431, 72 h): 3.8 ± 0.03 µM
GI50 ([2]; Homo sapiens): 3.2 ± 0.15 µM
GI50 ([5]; Homo sapiens, DU-145, 72 h): 4.1 ± 0.09 µM
GI50 ([6]; Pancreatic cancer cell): 4.9 ± 0.37 µM
GI50 [7]: 3 ± 0.09 µM
GI50 ([8]; Homo sapiens, NCI-H460, 72 h): 4.3 ± 0.12 µM
GI50 ([9]; Homo sapiens, U-87 MG): 4.3 ± 0.3 µM
GI50 ([11]; Homo sapiens, MCF7, MCF-7 cells): 2.7 ± 0.21 µM
GI50 ([12]; Homo sapiens, BE(2)-C): 3.1 µM
GI50 ([13]; Homo sapiens, HT-29, 72 h): 3.9 ± 0.71 µM
melting point: 180 to 183 °C
SMILES: COc1cccc(/C=N/NC(=S)SCc2ccccc2C)c1O [S2MoVaH, S-2-Methybenzyl-β-N-(2-hydroxy-3-methoxybenzylmethylene) Dithiocarbazate]
GI50 ([3]; Homo sapiens): 4.6 ± 0.45 µM
GI50 [14]: 3.1 ± 0.07 µM
GI50 ([10]; Homo sapiens): 3.4 ± 0.47 µM
